ChEMBL document CHEMBL1201862, “PubChem BioAssay data set” (2004)
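Cells were grown in 96-well plates and exposed to each compound for 48 hours at five concentrations; endpoints were interpolated linearly between bracketing concentrations, or set to the highest concentration if not reached. At the GI50, growth is halved.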 The source made the active and inactive calls. Rule as the data show it: active = GI50 up to about 1.1 µM and inactive = higher.

What was measured:
Assay in all cases: NCI-60 cell line screen, 48 h
[1] = system: BT-549
[2] = system: COLO 205
[3] = system: DU-145
[4] = system: HOP-62
[5] = system: Hs-578T
[6] = system: K562
[7] = system: M14
[8] = system: MCF7
[9] = system: Malme-3M
[10] = system: NCI-H226
[11] = system: OVCAR-3
[12] = system: OVCAR-5
[13] = system: OVCAR-8
[14] = system: PC-3
[15] = system: RPMI-8226
[16] = system: SK-MEL-2
[17] = system: SNB-19
[18] = system: SR
[19] = system: SK-OV-3
[20] = system: MDA-N

Row | Compound | GI50 [1] | GI50 [2] | GI50 [3] | GI50 [4] | GI50 [5] | GI50 [6] | GI50 [7] | GI50 [8] | GI50 [9] | GI50 [10] | GI50 [11] | GI50 [12] | GI50 [13] | GI50 [14] | GI50 [15] | GI50 [16] | GI50 [17] | GI50 [18] | GI50 [19] | GI50 [20]
1 | CC(=O)OCC1OC(n2c3c(cc(C#N)c2=S)CCCCCC3)C(OC(C)=O)C(OC(C)=O)C1OC(C)=O (stereo unspecified) | > 100 µM (inactive) | 84.1 µM (inactive) | > 100 µM (inactive) | > 100 µM (inactive) | 97.9 µM (inactive) | 32.1 µM (inactive) | > 100 µM (inactive) | > 100 µM (inactive) | > 100 µM (inactive) | > 100 µM (inactive) | > 100 µM (inactive) | > 100 µM (inactive) | 69.8 µM (inactive) | > 100 µM (inactive) | 55.5 µM (inactive) | > 100 µM (inactive) | > 100 µM (inactive) | 36.8 µM (inactive) | – | –
2 | CCC(=O)NC(Nc1cc(C)on1)(C(F)(F)F)C(F)(F)F | > 100 µM (inactive) | – | > 100 µM (inactive) | > 100 µM (inactive) | > 100 µM (inactive) | > 100 µM (inactive) | > 100 µM (inactive) | > 100 µM (inactive) | > 100 µM (inactive) | > 100 µM (inactive) | > 100 µM (inactive) | > 100 µM (inactive) | > 100 µM (inactive) | – | > 100 µM (inactive) | > 100 µM (inactive) | > 100 µM (inactive) | > 100 µM (inactive) | > 100 µM (inactive) | –
3 | Cc1ccccc1C1OC1C(=O)c1ccccc1N (stereo unspecified) | – | 87.3 µM (inactive) | > 100 µM (inactive) | – | – | 56.8 µM (inactive) | 47.3 µM (inactive) | 55.3 µM (inactive) | – | > 100 µM (inactive) | – | > 100 µM (inactive) | > 100 µM (inactive) | 46.6 µM (inactive) | 46.7 µM (inactive) | 43.3 µM (inactive) | 56.4 µM (inactive) | > 100 µM (inactive) | > 100 µM (inactive) | 14.1 µM (inactive)
4 | Cc1c2c(n(CCc3ccccc3)c1C)N(C)N=C(C#N)S2(=O)=O | > 100 µM (inactive) | – | > 100 µM (inactive) | > 100 µM (inactive) | – | > 10 µM (inactive) | > 100 µM (inactive) | > 100 µM (inactive) | – | > 100 µM (inactive) | > 100 µM (inactive) | > 100 µM (inactive) | > 100 µM (inactive) | > 100 µM (inactive) | > 100 µM (inactive) | > 100 µM (inactive) | > 100 µM (inactive) | > 100 µM (inactive) | > 100 µM (inactive) | > 100 µM (inactive)
5 | O=c1[nH]cc(NCCCl)c(=O)[nH]1 | > 100 µM (inactive) | > 100 µM (inactive) | > 100 µM (inactive) | > 100 µM (inactive) | – | > 100 µM (inactive) | > 100 µM (inactive) | > 100 µM (inactive) | > 100 µM (inactive) | > 100 µM (inactive) | > 100 µM (inactive) | > 100 µM (inactive) | > 100 µM (inactive) | > 100 µM (inactive) | > 100 µM (inactive) | > 100 µM (inactive) | > 100 µM (inactive) | – | > 100 µM (inactive) | > 100 µM (inactive)
6 | C[N+]1([O-])CCC(O)(C2CC2)CC1 (stereo unspecified) | > 100 µM (inactive) | > 100 µM (inactive) | > 100 µM (inactive) | > 100 µM (inactive) | > 100 µM (inactive) | > 100 µM (inactive) | > 100 µM (inactive) | > 100 µM (inactive) | > 100 µM (inactive) | > 100 µM (inactive) | > 100 µM (inactive) | > 100 µM (inactive) | > 100 µM (inactive) | > 100 µM (inactive) | > 100 µM (inactive) | > 100 µM (inactive) | > 100 µM (inactive) | > 100 µM (inactive) | > 100 µM (inactive) | –
7 | O=C1Nc2cccc(Cl)c2/C1=C\c1cccnc1 | 8.53 µM (inactive) | 3.32 µM (inactive) | 6.37 µM (inactive) | 6.12 µM (inactive) | 14.2 µM (inactive) | 5.85 µM (inactive) | 6.61 µM (inactive) | 4.02 µM (inactive) | 9.93 µM (inactive) | – | 5.64 µM (inactive) | 3.77 µM (inactive) | 4.33 µM (inactive) | 14.8 µM (inactive) | – | 11.1 µM (inactive) | 3.7 µM (inactive) | – | 4.12 µM (inactive) | –
8 | Cc1cccc2c(N)c3cccc(C(=O)NCC[N+](C)(C)Cc4ccccc4[N+](=O)[O-])c3nc12 | – | 9.02 µM (inactive) | 8.69 µM (inactive) | 7.48 µM (inactive) | 6.35 µM (inactive) | 4.72 µM (inactive) | 9.62 µM (inactive) | 4.35 µM (inactive) | 6.76 µM (inactive) | 3.94 µM (inactive) | 18 µM (inactive) | 13 µM (inactive) | 5.89 µM (inactive) | 7.14 µM (inactive) | 4.84 µM (inactive) | 25.8 µM (inactive) | 14.1 µM (inactive) | 0.258 µM (active) | 12.6 µM (inactive) | 16.9 µM (inactive)
9 | COc1cc2oc(=O)cc(C)c2c(OC)c1OC(C)=O | – | > 100 µM (inactive) | > 100 µM (inactive) | > 100 µM (inactive) | > 100 µM (inactive) | > 100 µM (inactive) | > 100 µM (inactive) | > 100 µM (inactive) | > 100 µM (inactive) | > 100 µM (inactive) | > 100 µM (inactive) | > 100 µM (inactive) | > 100 µM (inactive) | > 100 µM (inactive) | > 100 µM (inactive) | > 100 µM (inactive) | > 100 µM (inactive) | > 100 µM (inactive) | > 100 µM (inactive) | > 100 µM (inactive)
10 | COc1ccc(C(c2cc(OC)c(OC)c(OC)c2)N2C(=O)CCC2C(=O)O)cc1 (stereo unspecified) | – | 41 µM (inactive) | > 100 µM (inactive) | > 100 µM (inactive) | 62.1 µM (inactive) | 43.8 µM (inactive) | 38.3 µM (inactive) | 62.4 µM (inactive) | 68.9 µM (inactive) | 74.3 µM (inactive) | 33.8 µM (inactive) | 61.5 µM (inactive) | 41.8 µM (inactive) | 46 µM (inactive) | 49.8 µM (inactive) | 46.8 µM (inactive) | 44.9 µM (inactive) | 49.7 µM (inactive) | 60.1 µM (inactive) | 21.1 µM (inactive)
11 | Brc1ccc2c(c1)-c1nc3c(cc1CC2)CCc1ccc(Br)cc1-3 | > 100 µM (inactive) | > 100 µM (inactive) | – | > 100 µM (inactive) | – | 22.6 µM (inactive) | > 100 µM (inactive) | > 100 µM (inactive) | > 100 µM (inactive) | > 100 µM (inactive) | > 100 µM (inactive) | > 100 µM (inactive) | > 100 µM (inactive) | > 100 µM (inactive) | 0.637 µM (active) | > 100 µM (inactive) | > 100 µM (inactive) | – | > 100 µM (inactive) | > 100 µM (inactive)
12 | CN(CCN1C(=O)c2cccc3cccc(c23)C1=O)CCN1C(=O)c2cccc3cccc(c23)C1=O | 53.1 µM (inactive) | 2.55 µM (inactive) | > 100 µM (inactive) | 12.5 µM (inactive) | 12 µM (inactive) | 73.1 µM (inactive) | > 100 µM (inactive) | 84.3 µM (inactive) | 6 µM (inactive) | 17.5 µM (inactive) | 21.2 µM (inactive) | > 100 µM (inactive) | 5.55 µM (inactive) | > 100 µM (inactive) | – | 45.7 µM (inactive) | 3.17 µM (inactive) | 3.37 µM (inactive) | 4.29 µM (inactive) | –
13 | CCN(CC)CCCNC(=O)c1cc2cc(NC(=O)c3cc4cc([N+](=O)[O-])ccc4[nH]3)ccc2[nH]1 | > 100 µM (inactive) | > 100 µM (inactive) | > 100 µM (inactive) | 28.6 µM (inactive) | – | > 100 µM (inactive) | > 100 µM (inactive) | 48.1 µM (inactive) | – | > 100 µM (inactive) | 7.89 µM (inactive) | > 100 µM (inactive) | > 100 µM (inactive) | > 100 µM (inactive) | 16.9 µM (inactive) | > 100 µM (inactive) | > 100 µM (inactive) | > 100 µM (inactive) | > 100 µM (inactive) | 70.1 µM (inactive)
14 | N#CC1Nc2ccccc2[C@@H](O)C1O (stereo partly specified) | – | > 100 µM (inactive) | > 100 µM (inactive) | > 100 µM (inactive) | > 100 µM (inactive) | > 100 µM (inactive) | > 100 µM (inactive) | > 100 µM (inactive) | > 100 µM (inactive) | – | > 100 µM (inactive) | > 100 µM (inactive) | > 100 µM (inactive) | > 100 µM (inactive) | > 100 µM (inactive) | > 100 µM (inactive) | – | > 100 µM (inactive) | > 100 µM (inactive) | > 100 µM (inactive)
15 | COC1=C(NC(C)=O)C(=O)c2nc3n(c2C1=O)CCC3 | – | 21.4 µM (inactive) | 20.8 µM (inactive) | 20.7 µM (inactive) | 30.8 µM (inactive) | 26.7 µM (inactive) | 18.2 µM (inactive) | 23.1 µM (inactive) | 20.4 µM (inactive) | 26.7 µM (inactive) | 15.7 µM (inactive) | 18.7 µM (inactive) | 16.7 µM (inactive) | 34.8 µM (inactive) | 24.4 µM (inactive) | 17.7 µM (inactive) | 26.7 µM (inactive) | 36.9 µM (inactive) | 41.6 µM (inactive) | 2.83 µM (inactive)
